Peptide text beside a SMILES is read from it. * marks the point of attachment. Cbz = O=C(OCc1ccccc1)*

The subject of this assay is PTP1B/TC-PTP. In kind it is cell-based. The following applies: HEK293 cells, followed by 4 h DU-14 at 100 nM.
Take `Cc1ncsc1-c1ccc([C@H](C)NC(=O)[C@@H]2C[C@@H](O)CN2C(=O)[C@@H](N)C(C)(C)C)cc1` [(S,R,S)-AHPC-Me]: the “effect of pre-treatment/addition on DU-14 mediated PTP1B and TC-PTP degradation” value (“effect of pre-treatment/addition” below) is “reduced”.

As to `Nc1cccc2c1CN(C1CCC(=O)NC1=O)C2=O` (stereo not shown) [Lenalidomide], the “effect of pre-treatment/addition” value is “had no effect”.

Turning to `CC(C)C[C@@H](C=O)NC(=O)[C@H](CC(C)C)NC(=O)[C@H](CC(C)C)NC(=O)OCc1ccccc1` [MG-132] (Cbz-Leu-Leu-Leu-aldehyde), the “effect of pre-treatment/addition” value is given as “markedly reduced”.

Consider `NS(=O)(=O)OC[C@@H]1C[C@@H](n2ccc3c(N[C@H]4CCc5ccccc54)ncnc32)C[C@@H]1O` [MLN-4924], for which the “effect of pre-treatment/addition” value is listed as “markedly reduced”.

(Values after paper PMC10196813 (Angewandte Chemie (International ed. in English), 2023).)
